Assay results taken from PubChem BioAssay AID504598 (NMMLSC, 2011).
Active and inactive are the calls of the source. How the calls were made is not given here.

Experiments:
[1] = molecular target: Bcl-2-like protein 10 (Homo sapiens) (UniProt Q9HD36); experiment: Bcl-2 family partner binding disruption – biochemical, powder compounds, wildtype and mutant Bfl1, panel, dose response (AID 504598); settings: Bfl1/BclB peptide binding displacement assay, BclB wildtype; for percent span: stronger effect = higher value
Chain of Bcl-2-like protein 10 (Homo sapiens) (Q9HD36 whole entry, looked up): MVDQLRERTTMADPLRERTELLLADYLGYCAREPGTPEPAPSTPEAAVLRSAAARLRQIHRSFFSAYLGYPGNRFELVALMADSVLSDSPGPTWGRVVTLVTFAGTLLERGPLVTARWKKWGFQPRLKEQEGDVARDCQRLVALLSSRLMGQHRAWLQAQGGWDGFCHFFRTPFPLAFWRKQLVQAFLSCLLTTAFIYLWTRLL

[2] = molecular target: Bcl-2-related protein A1 (Homo sapiens) (UniProt Q16548); experiment: as above; settings: Bfl1/BclB peptide binding displacement assay; for percent span: stronger effect = higher value
Chain of Bcl-2-related protein A1 (Homo sapiens) (Q16548 whole entry, looked up): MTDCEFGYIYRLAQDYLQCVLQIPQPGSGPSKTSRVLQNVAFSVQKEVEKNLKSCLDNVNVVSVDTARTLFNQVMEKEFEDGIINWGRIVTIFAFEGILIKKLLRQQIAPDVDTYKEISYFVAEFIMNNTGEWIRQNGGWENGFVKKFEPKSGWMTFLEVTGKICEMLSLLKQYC

[3] = Bfl1 wildtype, deteriorated Bfl1 protein

SMILES	EC50 [1]	percent span ([2]; Bfl1 mutant)	EC50 [2, 3]	percent span ([2]; Bfl1 wildtype)	percent span [1]	EC50 ([2]; Bfl1 mutant)	EC50 ([2]; Bfl1 wildtype)
O=C(Nc1ccc2nc(-c3ccco3)c(-c3ccco3)nc2c1)N1CCCCCC1	13.6 µM	inactive	0.344 µM	inactive	–	–	–
Cc1cc(C)nc(/N=C(/N)Nc2cccc(N)c2)n1	–	inactive	–	inactive	inactive	–	–
CN1CCN(C2=C(Cl)C(=O)N(c3ccc(Cl)c(Cl)c3)C2=O)CC1	–	inactive	–	inactive	inactive	–	–
Cc1ccc(C=NNC(=O)CSc2nnc(-c3ccc(Cl)cc3)n2-c2ccccc2)o1	2.3 µM	inactive	–	inactive	–	–	–
CNC1CCC(Br)CC(C(=O)/C=C/c2cccc(OC)c2OC)C1=O (stereo unspecified)	–	–	18.4 µM	–	inactive	inactive	9.21 µM
CNC(CC(=O)c1ccc([N+](=O)[O-])cc1)C(Cl)(Cl)Cl (stereo unspecified)	–	inactive	0.0314 µM	inactive	inactive	–	–
CC(C)c1nnc(NC(=O)CCS(=O)(=O)c2nc(-c3cccs3)cc(C(F)(F)F)n2)s1	–	inactive	–	inactive	inactive	–	–
Cc1cc(-c2cc(-c3ccc(Cl)cc3)nc(N)c2C#N)co1	–	inactive	1.06 µM	–	inactive	–	> 104 µM (inactive)
Oc1ccc(NCc2ccccc2OCc2ccccc2)cc1	–	inactive	0.619 µM	inactive	inactive	–	–
Cc1ccc(C)n1-c1ccc(Br)cc1C(=O)O	–	inactive	–	inactive	inactive	–	–
Cc1ccc(-c2cc(-c3ccc(C)o3)nc(N)c2C#N)cc1	–	inactive	1.26 µM	inactive	inactive	–	–
CC(=O)c1ccc(NC(=O)c2ccc3nc(-c4ccco4)c(-c4ccco4)nc3c2)cc1	inactive	inactive	2.12 µM	inactive	–	–	–
CN1CCN(C2=C(Cl)C(=O)N(c3cccc(Cl)c3)C2=O)CC1	–	inactive	–	inactive	inactive	–	–
Cc1cc(N)ccc1N1CCCC1	> 141 µM (inactive)	inactive	1.86 µM	inactive	–	–	–
CCN1C(=O)/C(=C\C=C2/C=CC=CN2CC)SC1=S	–	inactive	0.483 µM	inactive	inactive	–	–
O=C1C(Cl)=C(N2CCN(c3ccccc3[N+](=O)[O-])CC2)C(=O)c2ccccc21	–	inactive	0.42 µM	inactive	inactive	–	–
O=C1NC(=O)C2(Cc3c(nc4ccccn4c3=O)N3CCCCCC32)C(=O)N1Cc1ccccc1 (stereo unspecified)	–	inactive	–	inactive	inactive	–	–
Cc1ccc(-c2cc(-c3ccc(F)cc3)c(C#N)c(N)n2)o1	–	inactive	1.53 µM	inactive	inactive	–	–
COc1cccc(-c2cc(C(F)(F)F)nc(S(C)(=O)=O)n2)c1	–	inactive	0.259 µM	inactive	inactive	–	–
CCOC(=O)CCS(=O)(=O)c1nc(-c2ccccc2)cc(C(F)(F)F)n1	–	inactive	–	inactive	inactive	–	–
CCOC(=O)CS(=O)(=O)c1nc(-c2ccccc2)cc(C(F)(F)F)n1	–	inactive	0.365 µM	inactive	inactive	–	–
